Values after ≈ are worked out from the molar mass of the structure shown. Where two headings read alike, the source gives them in different places.
Experiments:
[1] = patients; U.S. Patent Publication No. 2004/0063717; cited from earlier work
[2] = Solubility in aqueous solutions by pH (Table 1); assay type: physicochemical
IKs [3] = settings: Zygmunt et al. (2002); read-out: IC50 value (current not named); cited from earlier work
CYP2D6 [4] = target: T1, CYP2D6 (Homo sapiens, UniProt P10635); assay: biochemical
Method: The substrate, buffer and enzyme were pre-warmed at 37° C. The pre-warmed NADPH regenerating system and were then added and the samples gently mixed and incubated for 30 minutes. The effect of ranolazine on the CYP2D6 marker reactions to form 1-hydroxy-bufurolol, and dextrophan was monitored by tandem mass spectrometric assays. A known CYP2D6 inhibitor, quinidine, was included as a positive control. The negative control samples consisted of all components except ranolazine or known inhibitors. Incubations were carried out in duplicate.

IKr [5] = target: T2, IKr (Canis lupus familiaris, UniProt Q9TSZ3); set-up: Whole cell currents were recorded from isolated canine left ventricular midmyocrdial cells; endogenous in cells; host or cells: isolated canine left ventricular midmyocardial cells; settings: Zygmunt et al. (2002); cited from earlier work
T2 sequence (Q9TSZ3 1-1158): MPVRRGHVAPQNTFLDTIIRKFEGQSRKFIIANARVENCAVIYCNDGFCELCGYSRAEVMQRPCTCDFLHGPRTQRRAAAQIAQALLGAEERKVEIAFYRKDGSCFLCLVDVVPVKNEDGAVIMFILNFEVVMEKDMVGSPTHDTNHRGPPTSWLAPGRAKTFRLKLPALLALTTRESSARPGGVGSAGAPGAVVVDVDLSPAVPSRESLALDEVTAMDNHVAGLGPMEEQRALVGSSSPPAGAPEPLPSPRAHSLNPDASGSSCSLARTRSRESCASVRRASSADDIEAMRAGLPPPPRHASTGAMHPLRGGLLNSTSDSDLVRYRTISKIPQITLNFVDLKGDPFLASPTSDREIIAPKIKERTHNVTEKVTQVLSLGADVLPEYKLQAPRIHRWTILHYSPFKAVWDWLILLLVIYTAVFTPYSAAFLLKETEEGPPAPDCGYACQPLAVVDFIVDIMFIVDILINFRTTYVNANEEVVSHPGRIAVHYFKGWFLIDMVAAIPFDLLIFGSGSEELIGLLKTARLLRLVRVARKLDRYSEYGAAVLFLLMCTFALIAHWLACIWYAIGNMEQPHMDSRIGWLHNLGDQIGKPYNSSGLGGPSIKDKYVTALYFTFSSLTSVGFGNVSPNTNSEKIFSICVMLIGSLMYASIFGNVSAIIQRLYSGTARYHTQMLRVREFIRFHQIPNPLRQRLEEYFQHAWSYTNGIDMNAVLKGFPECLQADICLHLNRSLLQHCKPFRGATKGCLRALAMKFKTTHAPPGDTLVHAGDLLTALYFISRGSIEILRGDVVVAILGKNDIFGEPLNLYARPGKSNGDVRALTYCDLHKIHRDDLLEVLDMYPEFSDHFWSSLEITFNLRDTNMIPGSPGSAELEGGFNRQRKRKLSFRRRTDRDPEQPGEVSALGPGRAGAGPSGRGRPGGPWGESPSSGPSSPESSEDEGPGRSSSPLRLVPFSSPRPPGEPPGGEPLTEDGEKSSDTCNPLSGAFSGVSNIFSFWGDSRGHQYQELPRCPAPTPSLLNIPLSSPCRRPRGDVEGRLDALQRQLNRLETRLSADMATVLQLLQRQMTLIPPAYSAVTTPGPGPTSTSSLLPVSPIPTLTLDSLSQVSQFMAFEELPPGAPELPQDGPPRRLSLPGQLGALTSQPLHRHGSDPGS

[6] = system: rat isolated pancreatic islets; assay: Glucose stimulated insulin secretion (GSIS) in rat isolated pancreatic islets; assay type: cell-based
Method: Rat islets were isolated from male Sprague-Dawley (SD) rats (8-12 weeks old, n=6) as described by Yang Z. et al. […] Insulin secretion assay was performed essentially as previously described by Liu D. et al. Steroids 2006, 71, 691-699. […] Insulin secreted in experimental samples was measured by a RIA kit (Mercodia, N.C.). All insulin secretion data in the present study were normalized to insulin secretion per islet. There was a biphasic response for insulin secretion to ranolazine.

CYP2D6 [7] = target: T1, CYP2D6; assay: Inhibitory effects on CYP2D6 in extensive metabolizers of dextromethorphan; assay type: in vivo; set-up: evaluated in extensive metabolizers of dextromethorphan; from tissue; host or cells: in vivo, subjects who are extensive metabolizers
IKr [8] = target: T2, IKr; assay: cell-based
Method: (§1) Whole cell currents were recorded from isolated canine left ventricular midmyocrdial cells at 37° C. IKr and IKs were recorded during standard pulse protocols. Action potentials recorded at basic cycle lengths (BCL) of 300 and 2000 ms were used as command waveforms during voltage claim to measure late INa. Enantiomeric effects were determined at concentrations of 3, 10, and 30 μM.
(§2) Late INa was evaluated at two voltages during the plateau and final repolarization of an action potential voltage claims.

IKs [9] = assay: Whole cell IKs in isolated canine left ventricular midmyocardial cells; assay type: cell-based; settings: 30 μM
Method: as §1, §2

[10] = system: human isolated pancreatic islets; assay: GSIS in human isolated pancreatic islets; assay type: cell-based; settings: one donor, 30 min incubation (Example 4, FIG. 4)
Method: Rat islets were isolated from male Sprague-Dawley (SD) rats (8-12 weeks old, n=6) as described by Yang Z. et al. […] Insulin secretion assay was performed essentially as previously described by Liu D. et al. Steroids 2006, 71, 691-699. […] Insulin secreted in experimental samples was measured by a RIA kit (Mercodia, N.C.). […] The procedure used for the human islets was the same as the procedure used in Example 1 above, except that the incubation period was 30 minutes, instead of the 60 minutes used in Example 1.

T1 sequence (P10635 whole entry): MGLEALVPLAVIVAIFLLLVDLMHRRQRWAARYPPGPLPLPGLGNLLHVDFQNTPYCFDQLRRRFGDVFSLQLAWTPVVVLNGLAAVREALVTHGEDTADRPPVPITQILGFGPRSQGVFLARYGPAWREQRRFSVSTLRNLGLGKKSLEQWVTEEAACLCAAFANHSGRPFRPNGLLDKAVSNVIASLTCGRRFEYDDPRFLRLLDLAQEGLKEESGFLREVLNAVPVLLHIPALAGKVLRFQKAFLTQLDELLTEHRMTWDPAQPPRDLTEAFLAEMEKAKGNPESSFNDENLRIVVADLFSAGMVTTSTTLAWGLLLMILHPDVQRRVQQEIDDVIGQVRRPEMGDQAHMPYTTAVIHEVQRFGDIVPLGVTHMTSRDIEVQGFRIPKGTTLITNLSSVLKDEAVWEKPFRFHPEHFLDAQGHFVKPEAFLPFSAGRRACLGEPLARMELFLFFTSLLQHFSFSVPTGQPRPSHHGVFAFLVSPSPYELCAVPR

## COc1ccccc1OCC(O)CN1CCN(CC(=O)Nc2c(C)cccc2C)CC1 (racemic) [ranolazine, (±)-N-(2,6-dimethylphenyl)-4-[2-hydroxy-3-(2-methoxyphenoxy)propyl]-1-piperazine-acetamide]
[1]
  HbA1c levels: reduced HbA1c levels
[2]; Solution pH 4.81
  USP Solubility Class: Freely Soluble
[2]; Solution pH 4.89
  USP Solubility Class: Soluble
[2]; Solution pH 4.90
  USP Solubility Class: Soluble
[2]; Solution pH 5.04
  USP Solubility Class: Soluble
[2]; Solution pH 5.35
  USP Solubility Class: Sparingly Soluble
[2]; Solution pH 5.82
  USP Solubility Class: Slightly soluble
[2]; Solution pH 6.46
  USP Solubility Class: Slightly soluble
[2]; Solution pH 6.73
  USP Solubility Class: Very slightly soluble
[2]; Solution pH 7.08
  USP Solubility Class: Very slightly soluble
[2]; Solution pH 7.59 (unbuffered water)
  USP Solubility Class: Very slightly soluble
[2]; Solution pH 7.79
  Solubility: 170 µg/mL (≈ 398 µM)
  USP Solubility Class: Very slightly soluble
[2]; Solution pH 12.66
  USP Solubility Class: Very slightly soluble
IKs [3]
  IC50: > 100 µM
CYP2D6 [4]
  IC50: 324 µM
IKr [5]
  IC50: 11 µM
[6]; 1 nM to 1 μM, concentration-dependent, 20 mM glucose, 60 min
  increase of insulin secretion (GSIS): 2-5 fold
[6]; 10 μM, compared with 20 mM glucose alone
  effect on GSIS: no significant effect on GSIS
CYP2D6 [7]
  inhibition of CYP2D6 by ranolazine and/or metabolites: partially inhibit CYP2D6

## COc1ccccc1OC[C@H](O)CN1CCN(CC(=O)Nc2c(C)cccc2C)CC1 [R-ranolazine, (R)-(+)-N-(2,6-dimethylphenyl)-4-[2-hydroxy-3-(2-methoxyphenoxy)-propyl]-1-piperazineacetamide]
IKr [8]
  IC50: 28 ± 4 µM
IKs [9]
  IKs reduced: 5%
[10]
  increasing the secretion of insulin in response to glucose: significantly more effective

## COc1ccccc1OC[C@@H](O)CN1CCN(CC(=O)Nc2c(C)cccc2C)CC1 [S-ranolazine, (S)-(−)-N-(2,6-dimethylphenyl)-4-[2-hydroxy-3-(2-methoxyphenoxy)-propyl]-1-piperazineacetamide]
IKr [8]
  IC50: 10 ± 2 µM
IKs [9]
  IKs reduced: 27%
